Data from PubChem BioAssay AID330 (DTP/NCI, 2004).
“And” between values parts separate entries of the source, which are not always exact repeats. Equal entries are not always repeated. Inconclusive results and toxic doses are left out. Rule for the calls: active = survival T/C of 150% or more; inactive = T/C below 125% in these data.

Test system: P388 leukemia ip, CD2F1 mice, survival T/C
Assay: NCI In Vivo Anticancer Drug Screen. Data for tumor model P388 Leukemia (intraperitoneal) in CD2F1 (CDF1) mice
Conditions: endpoint: median survival time, higher = longer survival
Outline: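 Mice carrying the transplanted tumor received test compound or vehicle. Survival was recorded in each group, and the value is the treated-group measurement divided by that of the vehicle-treated control group.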

[1] = dose: 100.0 mg/kg/injection, schedule: Q04DX003 (ip), vehicle: saline sonified
[2] = dose: 50.0 mg/kg/injection, schedule: Q01DX009 (ip), vehicle: saline with Tween-80
[3] = dose: 100.0 mg/kg/injection, schedule: Q01DX009 (ip), vehicle: saline with Tween-80
[4] = dose: 200.0 mg/kg/injection, schedule: Q01DX009 (ip), vehicle: saline with Tween-80
[5] = dose: 400.0 mg/kg/injection, schedule: Q01DX009 (ip), vehicle: saline with Tween-80
[6] = dose: 50.0 mg/kg/injection, schedule: Q01DX005 (ip), vehicle: Klucel (hydroxypropylcellulose) (HPC)
[7] = dose: 100.0 mg/kg/injection, schedule: Q01DX005 (ip), vehicle: Klucel (hydroxypropylcellulose) (HPC)
[8] = dose: 200.0 mg/kg/injection, schedule: Q01DX005 (ip), vehicle: Klucel (hydroxypropylcellulose) (HPC)
[9] = dose: 12.5 mg/kg/injection, schedule: Q01DX009 (ip), vehicle: Klucel (hydroxypropylcellulose) (HPC)
[10] = dose: 25.0 mg/kg/injection, schedule: Q01DX009 (ip), vehicle: Klucel (hydroxypropylcellulose) (HPC)
[11] = dose: 50.0 mg/kg/injection, schedule: Q01DX001 (ip), vehicle: Klucel (hydroxypropylcellulose) (HPC)
[12] = dose: 50.0 mg/kg/injection, schedule: Q01DX009 (ip), vehicle: Klucel (hydroxypropylcellulose) (HPC)
[13] = dose: 100.0 mg/kg/injection, schedule: Q01DX001 (ip), vehicle: Klucel (hydroxypropylcellulose) (HPC)
[14] = dose: 100.0 mg/kg/injection, schedule: Q01DX009 (ip), vehicle: Klucel (hydroxypropylcellulose) (HPC)
[15] = dose: 200.0 mg/kg/injection, schedule: Q01DX001 (ip), vehicle: Klucel (hydroxypropylcellulose) (HPC)
[16] = dose: 400.0 mg/kg/injection, schedule: Q01DX001 (ip), vehicle: Klucel (hydroxypropylcellulose) (HPC)
[17] = dose: 50.0 mg/kg/injection, schedule: Q01DX005 (ip), vehicle: saline with Tween-80
[18] = dose: 100.0 mg/kg/injection, schedule: Q01DX005 (ip), vehicle: saline with Tween-80
[19] = dose: 200.0 mg/kg/injection, schedule: Q01DX005 (ip), vehicle: saline with Tween-80

Measured: T/C

O=C(C[N+]12CN3CN(CN(C3)C1)C2)c1ccc(Cl)cc1
inactive: dose: 66.0 mg/kg/injection, schedule: Q04DX003 (ip), vehicle: saline sonified 104 % of control | [1] 122 % of control | dose: 150.0 mg/kg/injection, schedule: Q04DX003 (ip), vehicle: saline sonified 118 % of control

Nc1ccncc1C(=O)O
inactive: [2] 99 % of control | [3] 99 % of control | [4] 96 % of control

NC(C=O)C(O)C(O)C(O)CO (stereo not drawn)
inactive: [3] 109 % of control | [1] 100 % of control | [4] 95 % of control | dose: 200.0 mg/kg/injection, schedule: Q04DX003 (ip), vehicle: saline sonified 100 % of control | [5] 95 % of control | dose: 400.0 mg/kg/injection, schedule: Q04DX003 (ip), vehicle: saline sonified 90 % of control

CSCCC(C(=O)O)N(CCC#N)CCC#N (stereo not drawn)
inactive: dose: 50.0 mg/kg/injection, schedule: Q01DX005 (ip), vehicle: saline 98 % of control | dose: 100.0 mg/kg/injection, schedule: Q01DX005 (ip), vehicle: saline 102 % of control | dose: 200.0 mg/kg/injection, schedule: Q01DX005 (ip), vehicle: saline 100 % of control

Cc1cc(Cl)ccc1NC(=O)/C(Cl)=C1/Sc2ccccc2NC1=O
inactive: dose: 100.0 mg/kg/injection, schedule: Q01DX001 (ip), vehicle: saline with Tween-80 105 % of control | dose: 200.0 mg/kg/injection, schedule: Q01DX001 (ip), vehicle: saline with Tween-80 97 % of control | dose: 400.0 mg/kg/injection, schedule: Q01DX001 (ip), vehicle: saline with Tween-80 97 % of control

c1ccc(C(Nc2nncs2)Nc2nncs2)cc1
active: dose: 240.0 mg/kg/injection, schedule: Q01DX005 (ip), vehicle: saline with Tween-80 157 % of control and 164 % of control
inactive: dose: 30.0 mg/kg/injection, schedule: Q01DX005 (ip), vehicle: saline with Tween-80 99 % of control | dose: 60.0 mg/kg/injection, schedule: Q01DX005 (ip), vehicle: saline with Tween-80 100 % of control and 112 % of control | dose: 120.0 mg/kg/injection, schedule: Q01DX005 (ip), vehicle: saline with Tween-80 117 % of control

CNc1c2ccccc2nc2ccccc12
inactive: dose: 12.5 mg/kg/injection, schedule: Q04DX002 (ip), vehicle: distilled water + Tween-80 98 % of control | dose: 25.0 mg/kg/injection, schedule: Q04DX002 (ip), vehicle: distilled water + Tween-80 100 % of control

Cc1c(-c2ccc(-c3ccccc3F)cc2)nc2ccc(F)cc2c1C(=O)O
active: dose: 45.0 mg/kg/injection, schedule: Q01DX005 (ip), vehicle: water 157 % of control | dose: 90.0 mg/kg/injection, schedule: Q01DX005 (ip), vehicle: water 158 % of control
inactive: dose: 5.62 mg/kg/injection, schedule: Q01DX005 (ip), vehicle: water 120 % of control | dose: 11.25 mg/kg/injection, schedule: Q01DX005 (ip), vehicle: water 121 % of control

S=C(Nc1ccccc1)P(C(=S)Nc1ccccc1)C1CCCCC1
inactive: [6] 108 % of control | [7] 101 % of control | [8] 99 % of control

CSC1CC(C)(O)Cc2cc3c(c(O)c21)C(=O)c1c(O)cc2c(c1C3=O)OC1OC2(C)C(O)C(N(C)C)C1O (stereo not drawn)
inactive: dose: 16.0 mg/kg/injection, schedule: Q01DX009 (ip), vehicle: other 100 % of control

O=c1[nH]c2ccccc2[nH]c1=O
inactive: dose: 50.0 mg/kg/injection, schedule: Q01DX009 (ip), vehicle: saline 100 % of control | [3] 94 % of control | [4] 92 % of control | dose: 200.0 mg/kg/injection, schedule: Q01DX009 (ip), vehicle: saline 100 % of control and 97 % of control | dose: 400.0 mg/kg/injection, schedule: Q01DX009 (ip), vehicle: saline 88 % of control

COc1cc(N)c2ncccc2c1Br
inactive: [6] 100 % of control | [7] 104 % of control | [8] 97 % of control

CNC(=O)OCc1c(COC(=O)NC)c(-c2ccc(S(C)(=O)=O)cc2)n(C)c1C
active: dose: 50.0 mg/kg/injection, schedule: Q01DX009 (ip), vehicle: distilled water + Tween-80 162 % of control | dose: 100.0 mg/kg/injection, schedule: Q01DX009 (ip), vehicle: distilled water + Tween-80 161 % of control and 180 % of control | dose: 200.0 mg/kg/injection, schedule: Q01DX009 (ip), vehicle: distilled water + Tween-80 198 % of control
inactive: dose: 12.5 mg/kg/injection, schedule: Q01DX009 (ip), vehicle: distilled water + Tween-80 111 % of control

CCCCn1c(C)nc2c(N)cc(C(F)(F)F)cc21
inactive: dose: 3.12 mg/kg/injection, schedule: Q01DX009 (ip), vehicle: Klucel (hydroxypropylcellulose) (HPC) 100 % of control and 92 % of control | dose: 6.25 mg/kg/injection, schedule: Q01DX009 (ip), vehicle: Klucel (hydroxypropylcellulose) (HPC) 105 % of control and 87 % of control | [9] 121 % of control and 97 % of control | dose: 25.0 mg/kg/injection, schedule: Q01DX001 (ip), vehicle: Klucel (hydroxypropylcellulose) (HPC) 111 % of control | [10] 107 % of control and 89 % of control and 93 % of control | [11] 115 % of control | [12] 101 % of control | [13] 115 % of control | [14] 105 % of control | [15] 114 % of control | [16] 118 % of control

CCOC(=O)CCC(NC(=O)c1ccc(NS(=O)(=O)c2ccc(C)cc2)cc1)C(=O)OCC (stereo not drawn)
inactive: dose: 3.13 mg/kg/injection, schedule: Q01DX009 (ip), vehicle: saline with Tween-80 93 % of control | dose: 6.25 mg/kg/injection, schedule: Q01DX009 (ip), vehicle: saline with Tween-80 93 % of control | dose: 12.5 mg/kg/injection, schedule: Q01DX009 (ip), vehicle: saline with Tween-80 86 % of control | [2] 110 % of control | [3] 100 % of control | [4] 99 % of control | [5] 99 % of control

CC(O)(c1ccccc1)C(CCl)N1CCCCC1 (stereo not drawn)
inactive: [2] 100 % of control | [3] 105 % of control | [4] 105 % of control

NCCCCNC(c1ccccc1)C(O)c1ccccc1 (stereo not drawn)
inactive: [12] 100 % of control | [14] 99 % of control

O=C(CC(c1cccnc1)C(C(=O)c1ccc(Cl)cc1)C(CC(=O)c1ccc(Cl)cc1)c1cccnc1)c1ccc(Cl)cc1 (stereo not drawn)
inactive: [17] 90 % of control | [18] 90 % of control | [19] 92 % of control

CC1=C(C)C(=O)OC(C(C)(O)C2(O)CC=C3C4CC(O)C5(O)C(O)C=CC(=O)C5(C)C4CCC32C)C1 (stereo not drawn)
inactive: dose: 7.75 mg/kg/injection, schedule: Q01DX005 (ip), vehicle: Klucel (hydroxypropylcellulose) (HPC) 105 % of control | dose: 15.5 mg/kg/injection, schedule: Q01DX005 (ip), vehicle: Klucel (hydroxypropylcellulose) (HPC) 105 % of control | dose: 31.0 mg/kg/injection, schedule: Q01DX005 (ip), vehicle: Klucel (hydroxypropylcellulose) (HPC) 106 % of control

O=C1CCC/C1=C1/SS/C(=C2/CCCC2=O)S1
inactive: [12] 101 % of control | [14] 102 % of control | dose: 200.0 mg/kg/injection, schedule: Q01DX009 (ip), vehicle: Klucel (hydroxypropylcellulose) (HPC) 98 % of control

COC(=O)c1cc(NC(=O)NNC(=O)c2ccncc2)cc(C(=O)OC)c1
inactive: [9] 100 % of control | [10] 98 % of control | [12] 116 % of control and 98 % of control | [14] 90 % of control

O=S1(=O)N=C([O-])c2ccc(C[N+]3(CCCl)CCN(CCCl)CC3)cc21
inactive: dose: 12.5 mg/kg/injection, schedule: Q01DX009 (ip), vehicle: DMSO 87 % of control | dose: 25.0 mg/kg/injection, schedule: Q01DX009 (ip), vehicle: DMSO 105 % of control | dose: 50.0 mg/kg/injection, schedule: Q01DX009 (ip), vehicle: DMSO 87 % of control | dose: 100.0 mg/kg/injection, schedule: Q01DX009 (ip), vehicle: DMSO 115 % of control

CC(C)(C)C#CP(=O)(C#CC(C)(C)C)C#CC(C)(C)C
inactive: [11] 97 % of control | [13] 99 % of control | [15] 95 % of control

CC(=O)Nc1ccc(S(=O)(=O)NC(CCC(N)=O)C(=O)O)cc1 (stereo not drawn)
inactive: [13] 95 % of control | [15] 100 % of control | [16] 92 % of control

CN1C2=C(C(=O)CCC2)C(c2ccccc2)C2=C1CCCC2=O
inactive: [17] 103 % of control | [18] 100 % of control | [19] 98 % of control
